In general, IC50 refers to the point on the concentration scale where inhibition reaches its midpoint. A word on the Ki: it is the equilibrium dissociation constant of an inhibitor or competing ligand from its target.

In one test the target is T1, metalloelastase MMP-12 (Homo sapiens, UniProt P39900).
T1 construct: purchased Anaspec, USA
The test can be described thus: Test for enzymatic inhibition of MMP-12 (colorimetric, thiopeptide substrate/DTNB). The class given is biochemical. As to conditions: purified human enzyme; for IC50: 1 h preincubation, 150 μM substrate, read-out: IC50 MMP12; for Ki: read-out: Ki MMP12. Here is the method:
(§1) Protocols of the Tests for Enzymatic Inhibition of MMP-9 and MMP-12
(§2) The enzymatic tests for screening compounds 1 to 7 were carried out in solution on two purified human enzymes: the gelatinase MMP-9 (Anaspec, USA) and the metalloelastase MMP-12 (Anaspec, USA).
(§3) The principle is based on the cleavage, by the MMP-9 or MMP-12 enzyme, of a chromogenic substrate: the thiopeptide (Ac-Pro-Leu-Gly-[2-mercapto-4-methylpentanoyl]-Leu-Gly-OC2H5) (Enzo Life Sciences, USA).
(§4) The hydrolysis of this thiopeptide produces a sulfhydryl group which reacts with Ellman's reagent: 5,5′-dithiobis(2-nitrobenzoic acid) (DTNB) to form 2-nitro-5-thiobenzoic acid (TNB), which is detected by its absorbance at 412 nm
(§5) The tests are carried out in the buffer 50 mM Hepes, 10 mM CaCl2, 0.5% Brij35, 1 mM DTNB, pH 7.0 containing the purified MMP-9 and MMP-12 enzymes diluted to the final concentration of 0.8 μg/ml.
(§6) After preincubation of the enzymes (1 h at ambient temperature in the dark) with or without the products tested (minimum of four doses serially diluted one-in-ten), the cleavage reactions are initiated by adding 150 μM (final concentration) of substrate in a total final volume of 100 μl (96-well plate format).
(§7) The plates containing the reactions are read in a microplate reader (Multiskan Ascent, ThermoElectron, France) in order to continuously measure the absorbance and to record values every […] for 3 h. Each condition is carried out in triplicate.
(§8) The concentration which inhibits 50% of the reaction (IC50) is determined from curves representing the absorbance (optical density) of the final reaction product (TNB) as a function of the doses tested. Each experiment is carried out at least twice.

For a further test, the target named is T2, gelatinase MMP-9 (Homo sapiens, UniProt P14780).
T2 construct: purchased Anaspec, USA
T2 sequence (P14780 94-707): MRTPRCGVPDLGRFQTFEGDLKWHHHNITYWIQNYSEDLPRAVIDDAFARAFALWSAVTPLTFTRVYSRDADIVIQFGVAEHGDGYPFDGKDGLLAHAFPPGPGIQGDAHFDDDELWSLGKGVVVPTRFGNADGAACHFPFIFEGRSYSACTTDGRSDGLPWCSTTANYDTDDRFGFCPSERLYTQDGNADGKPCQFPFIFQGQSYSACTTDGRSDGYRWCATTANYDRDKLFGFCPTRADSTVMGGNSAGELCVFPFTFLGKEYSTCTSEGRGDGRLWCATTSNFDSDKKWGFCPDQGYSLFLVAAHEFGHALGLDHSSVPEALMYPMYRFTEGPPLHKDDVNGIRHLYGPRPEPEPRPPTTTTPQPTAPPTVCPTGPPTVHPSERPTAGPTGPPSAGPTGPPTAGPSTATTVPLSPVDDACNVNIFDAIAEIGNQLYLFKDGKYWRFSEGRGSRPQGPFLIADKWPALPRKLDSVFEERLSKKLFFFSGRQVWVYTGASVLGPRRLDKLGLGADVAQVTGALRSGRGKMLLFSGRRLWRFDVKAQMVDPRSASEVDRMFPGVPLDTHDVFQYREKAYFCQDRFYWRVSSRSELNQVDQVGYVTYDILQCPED
The test can be described thus: Test for enzymatic inhibition of MMP-9 (colorimetric, thiopeptide substrate/DTNB). It is filed as biochemical. As to conditions: purified human enzyme; for IC50: 1 h preincubation, 150 μM substrate, read-out: IC50 MMP9; for Ki: read-out: Ki MMP9. Here is the method:
as §1, §2, §3, §4, §5, §6, §7, §8

T1 sequence (P39900 106-470): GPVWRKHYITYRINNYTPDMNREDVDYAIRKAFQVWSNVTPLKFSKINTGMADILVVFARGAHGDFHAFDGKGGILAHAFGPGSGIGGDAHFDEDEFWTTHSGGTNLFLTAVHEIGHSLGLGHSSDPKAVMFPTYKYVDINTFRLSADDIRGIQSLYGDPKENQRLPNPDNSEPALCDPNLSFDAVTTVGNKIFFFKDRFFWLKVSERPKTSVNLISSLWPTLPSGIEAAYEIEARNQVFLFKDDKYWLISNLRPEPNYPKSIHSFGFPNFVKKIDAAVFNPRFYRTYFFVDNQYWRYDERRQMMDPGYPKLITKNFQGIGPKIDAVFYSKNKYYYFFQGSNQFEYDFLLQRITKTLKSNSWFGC

With `C=C[C@H](C(=O)N[C@@H](Cc1ccccc1)C(=O)O)[C@H](O)c1cc(OCc2ccc(OC)cc2)n(-c2ccccc2)n1` [Compound 4, (S)-2-((S)-2-((S)-hydroxy-(5-(4-methoxybenzyloxy)-1-phenyl-1H-pyrazol-3-yl)methyl)but-3-enamido)-3-phenylpropanoic acid], on metalloelastase MMP-12, the IC50 turned out to be 20.2 µM and the Ki turned out to be 10.3 µM. Besides, at gelatinase MMP-9, the IC50 amounted to 259 µM and the Ki came out at 128 µM.

`C=C[C@H](C(=O)N[C@@H](Cc1ccccc1)C(=O)NC1CCCCC1)[C@@H](C)O` [Compound 1, (S)—N—((S)-1-(cyclohexylamino)-1-oxo-3-phenylpropan-2-yl)-2-((R)-1-hydroxyethyl)but-3-enamide]: the values for the half-maximal inhibitory concentration (IC50) at metalloelastase MMP-12 and on gelatinase MMP-9 were 19.5 µM and 18.1 µM, respectively. In addition, the values for the Ki at metalloelastase MMP-12 and on gelatinase MMP-9 were 9.95 µM and 8.95 µM, respectively.

As for `C=C[C@H](C(=O)N[C@@H](CCSC)C(=O)O)[C@H](O)CCCC` [Compound 7, (S)-2-((2S,3R)-3-hydroxy-2-vinylheptanamido)-4-(methylthio)butanoic acid], on metalloelastase MMP-12, the IC50 came out at 78.3 µM and the Ki worked out at 39.9 µM. Also, at gelatinase MMP-9, the IC50 was determined as 330 µM and the Ki was 163 µM.

With `C=C[C@H](C(=O)N[C@@H](Cc1ccccc1)C(=O)NO)[C@H](O)c1cc(OCc2ccc(OC)cc2)n(-c2ccccc2)n1` [Compound 5, (S)-2-((S)-hydroxy-(5-(4-methoxybenzyloxy)-1-phenyl-1H-pyrazol-3-yl)methyl)-N—((S)-1-(hydroxyamino)-1-oxo-3-phenylpropan-2-yl)but-3-enamide], the results for the IC50 at metalloelastase MMP-12 and on gelatinase MMP-9 were 22.3 µM and 19.8 µM, respectively. The results for the Ki on metalloelastase MMP-12 and on gelatinase MMP-9 were 11.4 µM and 9.78 µM, respectively.

With `C=C[C@H](C(=O)N[C@@H](CC(=O)O)C(=O)O)[C@H](O)c1cc(OCc2ccc(OC)cc2)n(-c2ccccc2)n1` [Compound 6, (S)-2-((S)-2-((S)-hydroxy-(5-(4-methoxybenzyloxy)-1-phenyl-1H-pyrazol-3-yl)methyl)but-3-enamido)succinic acid], at metalloelastase MMP-12, the IC50 was found to be 6.3 µM and the Ki came out at 3.21 µM. Further, at gelatinase MMP-9, the IC50 was found to be 13.1 µM and the Ki amounted to 6.47 µM.

Take `C=C[C@H](C(=O)N[C@@H](Cc1ccccc1)C(=O)NC1CCCCC1)[C@H](O)c1ccc(-c2ccccc2)cc1` [Compound 2, (S)-2-((S)-biphenyl-4-yl(hydroxy)methyl)-N—((S)-1-(cyclohexylamino)-1-oxo-3-phenylpropan-2-yl)but-3-enamide]: at metalloelastase MMP-12, the IC50 came out at 20 µM and the Ki amounted to 10.2 µM. In addition, at gelatinase MMP-9, the IC50 stood at 126 µM and the Ki came out at 62.2 µM.

In the case of `C=C[C@H](C(=O)N[C@@H](Cc1ccccc1)C(=O)NC1CCCCC1)[C@H](O)c1cc(OCc2ccc(OC)cc2)n(-c2ccccc2)n1` [Compound 3, (S)—N—((S)-1-(cyclohexylamino)-1-oxo-3-phenylpropan-2-yl)-2-((S)-hydroxy(5-(4-methoxybenzyloxy)-1-phenyl-1H-pyrazol-3-yl)methyl)but-3-enamide], at metalloelastase MMP-12, the IC50 is 7.23 µM and the Ki was 3.68 µM. For the same compound, on gelatinase MMP-9, the IC50 was determined as 5 µM and the Ki turned out to be 2.47 µM.

Values taken from patent US9682929B2, “Metalloprotease inhibitors, methods for producing same, and therapeutics uses thereof” (Centre National de la Recherche Scientifique-CNRS, priority 2013, dated 2017).
